Assay results published in the OPERA property sets (Mansouri et al. 2018).

Row | Structure (SMILES) | logP
1 | COc1c(OC)c(OC(C)=O)c2c(Cl)cccc2c1OC(C)=O | 3.16
2 | COc1c(OC)c(OC(C)=O)c2c(OC)cccc2c1OC(C)=O | 2.43
3 | COc1c(OC)c(OC(C)=O)c2cc(Br)ccc2c1OC(C)=O | 3.39
4 | COc1c(OC)c(OC(C)=O)c2cc(F)ccc2c1OC(C)=O | 2.75
5 | COc1c(OC)c(OC(=O)C(C)C)c2ccccc2c1OC(=O)C(C)C | 4.61
6 | COc1ccc2c(OC(C)=O)c(OC)c(OC)c(OC(C)=O)c2c1 | 2.39
7 | COc1c(OC)c(OC(C)=O)c2ccccc2c1OC(C)=O | 2.39
8 | COc1c(OC)c(OC(C)=O)c2c(C#N)cccc2c1OC(C)=O | 2.51

More lines, now with the values ahead:

Row | logP | Structure (SMILES)
9 | 5.69 | COc1c(OC)c(OC(=O)C(C)(C)C)c2ccccc2c1OC(=O)C(C)(C)C
10 | 3.26 | COc1c(OC)c(OC(C)=O)c2cc(Cl)ccc2c1OC(C)=O
11 | 2.86 | COc1c(OC)c(OC(C)=O)c2cc(C)ccc2c1OC(C)=O
12 | 2.28 | COc1c(OC)c(OC(C)=O)c2cc(C#N)ccc2c1OC(C)=O
